According to ChEMBL document CHEMBL6178010, “XPO1-Targeting Selective Inhibitors of Transcriptional Activation Suppress Graft-versus-Host Disease” (J Med Chem, 2025):
Active and inactive are the calls of the source. The rule behind the calls is not given here.

Legend:
Jurkat [1] = assay: Cytotoxicity against human Jurkat cells assessed as suppression of cell viability incubated for 24 hrs by CellTiter-Glo assay; format: functional, cell-based
Exportin-1 [2] = molecular target: T1, Exportin-1 (Homo sapiens, UniProt O14980); assay: Inhibition of XPO1 in PMA/ionomycin-activated human Jurkat cells expressing IL-2 promoter reporter gene assessed as suppression of IL-2 transcriptional activity incubated for 6 hrs by Bright-Glo Luciferase assay; format: cell-based
XPO1 = assay: Selectivity ratio of EC50 for cytotoxicity against human Jurkat cells assessed as suppression of cell viability to EC50 for inhibition of XPO1 in PMA/ionomycin-activated human Jurkat cells expressing IL-2 promoter reporter gene assessed as suppression of IL-2 transcriptional activity; format: toxicity, cell-based; details: read-out: Ratio EC50
[3] = Metabolic stability in mouse liver microsome assessed as intrinsic clearance; format: ADME; details: liver microsomes, read-out: CLH
[4] = Metabolic stability in mouse liver microsome assessed as half life; format: ADME; details: liver microsomes
Jurkat [5] = assay: Downregulation of IL-2 mRNA level in PMA/ionomycin-activated human Jurkat cells expressing XPO1 C528S mutant at 100 nM incubated for 6 hrs by RT-qPCR analysis; format: functional, cell-based
Jurkat [6] = assay: Cytotoxicity against human Jurkat cells expressing XPO1 C528S mutant assessed as suppression of cell viability up to 1000 nM incubated for 24 hrs by CellTiter-Glo assay; format: functional, cell-based
[7] = Drug exposure in mouse administered intraperitoneally; format: ADME; details: in vivo, ip
Exportin-1 [8] = molecular target: T1, Exportin-1; assay: Inhibition of selinexor-alkyne binding to XPO1 at Cys528 in human Jurkat cells up to 300 nM pretreated for 1 hr followed by addition of selinexor-alkyne measured after 1 hr by In-gel fluorescence analysis; format: cell-based; details: time 2.0 hrs
Mus musculus [9] = assay: Anti-inflammatory activity in irradiated BALB/c mouse transplanted with bone marrow/splenic T-cells from C57BL/6 mouse assessed as suppression of CD3 positive T-cell infiltration in host liver at 10 mg/kg, ip qd administered daily for 7 days by IHC analysis; format: functional, organism-based; details: time 7.0 day
Mus musculus [10] = assay: Suppression of T-cell activation in irradiated BALB/c mouse transplanted with bone marrow/splenic T-cells from C57BL/6 mouse assessed as downregulation of IFNG in host spleen at 10 mg/kg, ip administered daily for 7 days by RT-qPCR analysis; format: functional, organism-based; details: time 7.0 day
[11] = Toxicity in mouse assessed as neutropenia at 10 mg/kg, ip administered daily for 5 days by CBC analysis; format: organism-based; details: in vivo, 120 h, time 5 day
[12] = Toxicity in mouse assessed as leukopenia at 10 mg/kg, ip administered daily for 5 days by CBC analysis; format: organism-based; details: in vivo, 120 h, time 5 day
Mus musculus [13] = assay: Suppression of T-cell activation in irradiated BALB/c mouse transplanted with bone marrow/splenic T-cells from C57BL/6 mouse assessed as downregulation of CSF2 in host spleen at 10 mg/kg, ip administered daily for 7 days by RT-qPCR analysis; format: functional, organism-based; details: time 7.0 day

T1 sequence (O14980 whole entry): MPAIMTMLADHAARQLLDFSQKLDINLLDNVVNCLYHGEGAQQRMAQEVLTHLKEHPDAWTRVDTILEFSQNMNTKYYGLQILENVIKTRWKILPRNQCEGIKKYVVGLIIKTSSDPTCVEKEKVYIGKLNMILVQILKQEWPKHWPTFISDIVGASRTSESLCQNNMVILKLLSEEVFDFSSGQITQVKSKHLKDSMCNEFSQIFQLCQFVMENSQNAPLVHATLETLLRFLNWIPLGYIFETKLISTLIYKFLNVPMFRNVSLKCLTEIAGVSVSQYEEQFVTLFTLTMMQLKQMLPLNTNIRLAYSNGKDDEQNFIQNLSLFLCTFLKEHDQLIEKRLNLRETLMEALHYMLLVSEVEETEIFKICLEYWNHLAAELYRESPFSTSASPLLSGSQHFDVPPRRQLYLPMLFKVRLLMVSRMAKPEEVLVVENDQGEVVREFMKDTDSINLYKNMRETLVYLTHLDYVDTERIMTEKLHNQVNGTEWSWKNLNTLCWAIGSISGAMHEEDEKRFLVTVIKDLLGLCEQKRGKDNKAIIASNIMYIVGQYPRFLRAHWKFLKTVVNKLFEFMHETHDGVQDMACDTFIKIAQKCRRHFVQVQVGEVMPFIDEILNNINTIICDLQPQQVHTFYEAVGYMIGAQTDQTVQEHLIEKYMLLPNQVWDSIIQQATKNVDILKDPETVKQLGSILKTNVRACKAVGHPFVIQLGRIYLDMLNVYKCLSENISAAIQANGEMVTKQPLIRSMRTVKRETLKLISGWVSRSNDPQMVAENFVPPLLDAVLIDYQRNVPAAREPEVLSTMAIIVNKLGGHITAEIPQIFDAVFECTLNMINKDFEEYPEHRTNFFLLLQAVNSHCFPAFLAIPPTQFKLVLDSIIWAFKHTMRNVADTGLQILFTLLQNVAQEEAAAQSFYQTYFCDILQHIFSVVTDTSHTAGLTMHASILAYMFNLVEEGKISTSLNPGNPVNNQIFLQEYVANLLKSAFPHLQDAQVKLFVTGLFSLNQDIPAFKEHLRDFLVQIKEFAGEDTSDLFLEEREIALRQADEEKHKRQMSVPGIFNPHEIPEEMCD

SMILES | EC50 (Jurkat [1]) | EC50 (Exportin-1 [2]) | selectivity ratio (XPO1) | further results
CC1=CC(=O)N(Nc2ccc(F)c(N3CC(F)(F)C3)n2)C1=O | 232 nM | 40 nM | 5.8 | 
CC1=CC(=O)N(Nc2nc(-c3cccs3)nn3cccc23)C1=O | 170 nM | 44.7 nM | 3.8 | 
CC1=CC(=O)N(N(C)c2nc(N3CCCC(F)(F)C3)nn3cccc23)C1=O | 4290 nM | 209 nM | 20.5 | 
CC1=C(C)C(=O)N(Nc2nc(C(F)(F)F)nn3cccc23)C1=O | 920 nM | 963 nM | 0.96 | 
CC1=CC(=O)N(Nc2nc(-c3ccccc3)nn3cccc23)C1=O | 410 nM | 66.2 nM | 6.2 | microsomal CLint [3]: 19 µL/min/mg; half-life [4]: 75 min
CC1=CC(=O)N(N(C)c2nc(N(C)CC3CC3)nn3cccc23)C1=O | 187 nM | 29.1 nM | 6.4 | microsomal CLint [3]: 163 µL/min/mg; half-life [4]: 8.5 min
CC1=CC(=O)N(Nc2ccc3cn[nH]c3n2)C1=O | 6310 nM | 1820 nM | 3.5 | 
CC1=CC(=O)N(Nc2nc(-c3ccno3)nn3cccc23)C1=O | 5620 nM | 550 nM | 10.2 | 
CC1=CC(=O)N(Nc2ccc(C(F)(F)F)c(N3CC(F)(F)C3)n2)C1=O | 138 nM | 23 nM | 6 | microsomal CLint [3]: > 139 µL/min/mg; half-life [4]: < 10 min
CC1=CC(=O)N(Nc2nc(N(C)CC3CC3)nn3cccc23)C1=O | 329 nM | 60.4 nM | 5.4 | microsomal CLint [3]: 528 µL/min/mg; half-life [4]: 2.6 min
CC1=CC(=O)N(N(C)c2ccc(C(F)(F)F)c(N3CCCCCC3)n2)C1=O | 35.9 nM | 2.5 nM | 14.4 | 
CO[C@@H]1CCN(c2nc(NN3C(=O)C=C(C)C3=O)ccc2C(F)(F)F)C1 | 400 nM | 25 nM | 16 | 
CC1=CC(=O)N(Nc2nc(N3CCCC(F)(F)C3)nn3cccc23)C1=O | 832 nM | 222 nM | 3.7 | 
CC1=CC(=O)N(Nc2ccc(C(F)(F)F)c(N3CCCC3)n2)C1=O | 92 nM | 2 nM | 46 | microsomal CLint [3]: > 139 µL/min/mg; half-life [4]: < 10 min
CC1=CC(=O)N(Nc2nc(N3CC(F)(F)C3)nn3cccc23)C1=O | 447 nM | 58 nM | 7.7 | 
CC1=CC(=O)N(Nc2cc(N3CC(F)(F)C3)c(C(F)(F)F)cn2)C1=O | 770 nM | 60 nM | 12.8 | 
CC1=CC(=O)N(Nc2nc(N(C)C3CCCC3)nn3cccc23)C1=O | 423 nM | 80.2 nM | 5.3 | 
CNc1nc(NN2C(=O)C=C(C)C2=O)ccc1C(F)(F)F | 661 nM | 37 nM | 17.9 | 
CC1=CC(=O)N(Nc2ccc(C(F)(F)F)c(N3CCC3)n2)C1=O | 434 nM | 11 nM | 39.5 | microsomal CLint [3]: > 139 µL/min/mg; half-life [4]: < 10 min
CC1=CC(=O)N(Nc2cc(C(F)(F)F)cc(N3CCCC3)n2)C1=O | 26 nM | 4.7 nM | 5.5 | 
CC1=CC(=O)N(Nc2nc(N3CCCC3)nn3cccc23)C1=O | 240 nM | 34 nM | 7.1 | microsomal CLint [3]: < 23 µL/min/mg; Activity (Jurkat [5]): inactive; Activity (Jurkat [6]): inactive; half-life [4]: > 60 min; Drug uptake [7]: Active; inhibition (Exportin-1 [8]): Active
CC1=CC(=O)N(Nc2nc(C3CCCC3)nn3cccc23)C1=O | 955 nM | 170 nM | 5.6 | 
COc1cccc2nc(-c3cccs3)nc(NN3C(=O)C=C(C)C3=O)c12 [AS-602868] | 30.2 nM | 5.9 nM | 5.1 | microsomal CLint [3]: > 139 µL/min/mg; half-life [4]: < 10 min
CC1=CC(=O)N(Nc2nc(C3CC3)nn3cccc23)C1=O | 347 nM | 107 nM | 3.2 | 
CC1=CC(=O)N(N(C)c2nc(N3CCCCC3)nn3cccc23)C1=O | 386 nM | 61.5 nM | 6.3 | 
CC1=CC(=O)N(Nc2nc(Cl)nn3cccc23)C1=O | 813 nM | 76 nM | 10.7 | 

SMILES | EC50 (Jurkat [1]) | EC50 (Exportin-1 [2]) | selectivity ratio (XPO1) | further results
CC1=CC(=O)N(Nc2ccc(C(F)(F)F)c(Cl)c2)C1=O | 8.6 nM | 1.5 nM | 5.7 | 
CC1=CC(=O)N(Nc2ccc(C(F)(F)F)c(C3CCCC3)n2)C1=O | 34 nM | 12 nM | 2.8 | microsomal CLint [3]: > 139 µL/min/mg; half-life [4]: < 10 min
CC1=CC(=O)N(N(C)c2nc(N(C)C3CCCC3)nn3cccc23)C1=O | 418 nM | 95.7 nM | 4.4 | 
CC1=CC(=O)N(N(C)c2nc(N3CC(F)(F)C3)nn3cccc23)C1=O | 2250 nM | 250 nM | 9 | 
CC1=CC(=O)N(Nc2cc(C(F)(F)F)cc(C(F)(F)F)n2)C1=O | 91 nM | 18 nM |  | 
CC1=CC(=O)N(Nc2ccc(C(F)(F)F)c(N3CC4CC(C4)C3)n2)C1=O | 38.1 nM | 7.3 nM | 5.2 | 
CC1=CC(=O)N(Nc2ccc(C(F)(F)F)c(N3CC4(CCC4)C3)n2)C1=O | 82 nM | 13 nM | 6.3 | 
COCC#Cc1cc(NN2C(=O)C=C(C)C2=O)cc(C(F)(F)F)c1 | 696 nM | 61 nM | 11.4 | 
CC1=CC(=O)N(Nc2cc(C(F)(F)F)cc(C(F)(F)F)c2)C1=O |  |  |  | microsomal CLint [3]: < 23 µL/min/mg; Activity (Mus musculus [9]): Active; Activity (Mus musculus [10]): Active; Compound Showed Stronger Effect Than Sp100030; half-life [4]: > 60 min; Activity [11]: Non-toxic; Drug uptake [7]: Active; Activity [12]: Non-toxic; Activity (Mus musculus [13]): Active; Compound Showed Stronger Effect Than Sp100030
CC1=CC(=O)N(N(C)c2ccc(C(F)(F)F)c(N3CCC(F)(F)CC3)n2)C1=O | 75 nM | 9.7 nM | 7.7 | 
CC1=CC(=O)N(Nc2nc(Cl)c(C(F)(F)F)cc2F)C1=O | 30 nM | 9 nM | 3.3 | microsomal CLint [3]: 121 µL/min/mg; half-life [4]: 11.4 min
O=C(Nc1cc(C(F)(F)F)cc(C(F)(F)F)c1)c1cnc(Cl)nc1C(F)(F)F |  |  |  | microsomal CLint [3]: > 139 µL/min/mg; half-life [4]: < 10 min
CO[C@H]1CCN(c2nc(NN3C(=O)C=C(C)C3=O)ccc2C(F)(F)F)C1 | 492 nM | 20.4 nM | 24.1 | 
CC1=CC(=O)N(Nc2ccc(C(F)(F)F)c(-n3ccnc3)n2)C1=O | 1900 nM | 447 nM | 4.2 | 
CC1=CC(=O)N(Nc2ccc(C(F)(F)F)c(N3CCCC3=O)n2)C1=O | 4790 nM | 1630 nM | 2.9 | 
CC1=CC(=O)N(Nc2ncc(C(F)(F)F)c(Cl)n2)C1=O | 338 nM | 156 nM | 2.2 | microsomal CLint [3]: 70 µL/min/mg; half-life [4]: 19.9 min
CC1=CC(=O)N(N(C)c2ccc(C(F)(F)F)c(N3CCCCC3)n2)C1=O | 66 nM | 5.3 nM | 12.5 | 
CC1=CC(=O)N(Nc2cc(C(F)(F)F)c(C(F)(F)F)cn2)C1=O | 190 nM | 9.4 nM | 20.2 | 
CC1=CC(=O)N(Nc2nc(N3CCCCC3)nn3cccc23)C1=O | 148 nM | 30.1 nM | 4.9 | 
CC1=CC(=O)N(N(C)c2ccc(C(F)(F)F)c(N3CCCC(F)(F)C3)n2)C1=O | 70.9 nM | 11 nM | 6.4 | 
CC1=CC(=O)N(N(C)c2ccc(C(F)(F)F)c(N3CC(F)(F)C3)n2)C1=O | 47 nM | 7.1 nM | 6.6 | 
CC1=CC(=O)N(Nc2ccc(C(F)(F)F)c(-c3ccnn3C)n2)C1=O | 1740 nM | 724 nM | 2.4 | 
CC1=CC(=O)N(Nc2nc(-c3ccnn3C)nn3cccc23)C1=O | 1320 nM | 251 nM | 5.3 | 
CC1=CC(=O)N(Nc2ccc(C(F)(F)F)c(Cl)n2)C1=O |  |  |  | microsomal CLint [3]: 53 µL/min/mg; half-life [4]: 26.1 min
CN(c1ccc(C(F)(F)F)c(N2CC(F)(F)C2)n1)N1CC=CC1=O | 82 nM | 46 nM | 1.8 | 
